Assay: xn = mol fraction of the nth substance listed
Details: Liquid, Vibrating tube method

COC(=O)OC [dimethyl carbonate] + CCCO
mass density [kg/m3]
Details | 100 kPa | 5000 kPa | 10000 kPa | 15000 kPa | 20000 kPa | 25000 kPa | 30000 kPa | 35000 kPa | 40000 kPa
288.15 K, x1 = 0.0273 | 815.28 | 819.04 | 822.48 | 825.78 | 829.15 | 832.17 | 835.17 | 838.02 | 840.76
288.15 K, x1 = 0.0506 | 821.93 | 825.69 | 829.18 | 832.53 | 835.9 | 838.98 | 842.03 | 844.93 | 847.68
288.15 K, x1 = 0.0755 | 829.07 | 832.88 | 836.37 | 839.78 | 843.2 | 846.28 | 849.38 | 852.29 | 855.09
288.15 K, x1 = 0.1007 | 836.26 | 840.08 | 843.62 | 847.03 | 850.45 | 853.58 | 856.69 | 859.6 | 862.4
288.15 K, x1 = 0.1495 | 850.12 | 853.99 | 857.54 | 861.01 | 864.47 | 867.61 | 870.78 | 873.75 | 876.61
288.15 K, x1 = 0.2003 | 864.44 | 868.36 | 871.96 | 875.5 | 879 | 882.15 | 885.32 | 888.35 | 891.27
288.15 K, x1 = 0.2529 | 879.11 | 883.04 | 886.7 | 890.29 | 893.84 | 897.05 | 900.28 | 903.32 | 906.24
288.15 K, x1 = 0.2993 | 891.99 | 895.97 | 899.68 | 903.29 | 906.83 | 910.1 | 913.34 | 916.38 | 919.36
288.15 K, x1 = 0.3497 | 905.81 | 909.85 | 913.56 | 917.23 | 920.81 | 924.09 | 927.39 | 930.49 | 933.52
288.15 K, x1 = 0.401 | 919.74 | 923.79 | 927.61 | 931.33 | 934.96 | 938.25 | 941.6 | 944.76 | 947.8
288.15 K, x1 = 0.4509 | 933.25 | 937.3 | 941.17 | 944.96 | 948.59 | 951.93 | 955.29 | 958.51 | 961.56
288.15 K, x1 = 0.5002 | 946.47 | 950.58 | 954.46 | 958.3 | 961.98 | 965.33 | 968.75 | 971.97 | 975.08
288.15 K, x1 = 0.5498 | 959.76 | 963.88 | 967.81 | 971.66 | 975.38 | 978.79 | 982.22 | 985.5 | 988.61
288.15 K, x1 = 0.5996 | 973.01 | 977.19 | 981.12 | 984.99 | 988.75 | 992.17 | 995.65 | 998.94 | 1002.11
288.15 K, x1 = 0.6499 | 986.28 | 990.51 | 994.5 | 998.42 | 1002.18 | 1005.66 | 1009.15 | 1012.45 | 1015.62
288.15 K, x1 = 0.7006 | 999.56 | 1003.79 | 1007.79 | 1011.77 | 1015.53 | 1019.07 | 1022.61 | 1025.92 | 1029.15
288.15 K, x1 = 0.7471 | 1011.61 | 1015.85 | 1019.9 | 1023.94 | 1027.7 | 1031.24 | 1034.8 | 1038.16 | 1041.39
288.15 K, x1 = 0.7989 | 1025.02 | 1029.31 | 1033.41 | 1037.52 | 1041.32 | 1044.87 | 1048.43 | 1051.8 | 1055.05
288.15 K, x1 = 0.8491 | 1038.04 | 1042.34 | 1046.44 | 1050.56 | 1054.41 | 1057.97 | 1061.59 | 1065.02 | 1068.31
288.15 K, x1 = 0.8993 | 1051.07 | 1055.38 | 1059.54 | 1063.72 | 1067.56 | 1071.18 | 1074.81 | 1078.24 | 1081.55
288.15 K, x1 = 0.9249 | 1057.64 | 1061.95 | 1066.12 | 1070.3 | 1074.14 | 1077.81 | 1081.44 | 1084.88 | 1088.19
288.15 K, x1 = 0.9489 | 1063.77 | 1068.08 | 1072.25 | 1076.44 | 1080.27 | 1083.9 | 1087.54 | 1091.03 | 1094.34
288.15 K, x1 = 0.9743 | 1070.25 | 1074.61 | 1078.78 | 1082.98 | 1086.81 | 1090.45 | 1094.08 | 1097.53 | 1100.84
288.15 K, x1 = 1 | 1076.83 | 1081.15 | 1085.32 | 1089.52 | 1093.35 | 1096.99 | 1100.63 | 1104.08 | 1107.4
293.15 K, x1 = 0.0273 | 811.13 | 814.85 | 818.47 | – | – | – | – | – | –
293.15 K, x1 = 0.0506 | 817.67 | 821.44 | 825.06 | – | – | – | – | – | –
293.15 K, x1 = 0.0755 | 824.75 | 828.52 | 832.19 | – | – | – | – | – | –
293.15 K, x1 = 0.1007 | 831.84 | 835.66 | 839.38 | – | – | – | – | – | –
293.15 K, x1 = 0.1495 | 845.58 | 849.45 | 853.18 | – | – | – | – | – | –
293.15 K, x1 = 0.2003 | 859.73 | 863.66 | 867.43 | – | – | – | – | – | –
293.15 K, x1 = 0.2529 | 874.29 | 878.27 | – | – | – | – | – | – | –
293.15 K, x1 = 0.2993 | 887.05 | 891.08 | – | – | – | – | – | – | –
293.15 K, x1 = 0.3497 | 900.71 | 904.78 | – | – | – | – | – | – | –
293.15 K, x1 = 0.401 | 914.47 | 918.61 | – | – | – | – | – | – | –
293.15 K, x1 = 0.4509 | 927.86 | 932.05 | – | – | – | – | – | – | –
293.15 K, x1 = 0.5002 | 940.97 | 945.21 | – | – | – | – | – | – | –
293.15 K, x1 = 0.5498 | 954.1 | 958.38 | – | – | – | – | – | – | –
293.15 K, x1 = 0.5996 | 967.18 | 971.52 | – | – | – | – | – | – | –
293.15 K, x1 = 0.6499 | 980.33 | 984.67 | – | – | – | – | – | – | –
293.15 K, x1 = 0.7006 | 993.49 | 997.89 | – | – | – | – | – | – | –
293.15 K, x1 = 0.7471 | 1005.43 | 1009.83 | – | – | – | – | – | – | –
293.15 K, x1 = 0.7989 | 1018.72 | 1023.17 | – | – | – | – | – | – | –
293.15 K, x1 = 0.8491 | 1031.57 | 1036.07 | – | – | – | – | – | – | –
293.15 K, x1 = 0.8993 | 1044.49 | 1049.04 | – | – | – | – | – | – | –
293.15 K, x1 = 0.9249 | 1051 | 1055.55 | – | – | – | – | – | – | –
293.15 K, x1 = 0.9489 | 1057.07 | 1061.62 | – | – | – | – | – | – | –
293.15 K, x1 = 0.9743 | 1063.49 | 1068.04 | – | – | – | – | – | – | –
293.15 K, x1 = 1 | 1070.06 | 1074.62 | – | – | – | – | – | – | –

From the NIST ThermoML archive (doi:10.1016/j.jct.2019.02.011)
